The numbers were not newly measured in article PMC7449315 (Journal for Immunotherapy of Cancer, 2020), which cites them from elsewhere.

The conditions of this series: early phase I studies, single agent; ref 28 30 31; cited from earlier work.

Each structure is given as a SMILES string.

For the compound `Cn1cc(C[C@@H](N)C(=O)O)c2ccccc21` [indoximod], the best overall response result was “stable disease”.

Regarding `NS(=O)(=O)NCCNc1nonc1C(=NO)Nc1ccc(F)c(Br)c1` [epacadostat], the best overall response entry is recorded as “stable disease”. In the case of `O[C@H](C[C@H]1c2c(F)cccc2-c2cncn21)[C@H]1CC[C@H](O)CC1` [navoximod], the best overall response entry is given as “stable disease”.
